# Legend:
# Type in all cases: in vivo
# [1] = system: ivy-leaved morning glory (Ipomoea hederacea); assay: Test G Pre-Emergence Protocol; conditions: Ipomoea, pre-emergence, 312 h, evaluated after 13 days
# Method in brief: (§1)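 Glasshouse pre-emergence test: soil-sown seeds, sprayed after 1 d at 15.625, 62.5 or 250 g/ha. Conditions 24/16° C day/night, 14 h light, 65% humidity, watering twice daily. Rating 13 d post-spray (100 = total damage).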
# [2] = system: velvetleaf (Abutilon theophrasti); assay: Test G Pre-Emergence Protocol; conditions: Abutilon theophrasti, pre-emergence, 312 h, evaluated after 13 days
# Method in brief: as §1
# [3] = system: corn (Zea mays); assay: Test G Pre-Emergence Protocol; conditions: Zea mays, pre-emergence, 312 h, evaluated after 13 days
# Method in brief: as §1
# [4] = system: redroot pigweed (Amaranthus retroflexus); assay: Test G Pre-Emergence Protocol; conditions: Amaranthus retroflexus, pre-emergence, 312 h, evaluated after 13 days
# Method in brief: as §1
# [5] = system: giant foxtail (Setaria faberi); assay: Test G Pre-Emergence Protocol; conditions: Setaria faberi, pre-emergence, 312 h, evaluated after 13 days
# Method in brief: as §1
# [6] = system: barnyardgrass (Echinochloa crus-galli); assay: Test G Pre-Emergence Protocol; conditions: Echinochloa crus-galli, pre-emergence, 312 h, evaluated after 13 days
# Method in brief: as §1
# [7] = system: ivy-leaved morning glory (Ipomoea hederacea); assay: Test G Post-Emergence Protocol; conditions: Ipomoea, post-emergence, 312 h, read-out: Morningglory, Ivy-leaved damage rating
# Method in brief: (§2)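 Scores run 0 (no damage) to 100 (total damage) and were taken 13 days after spraying. Plants had been raised in pots for 8 days under glasshouse control (24/16 °C, 14 h photoperiod, 65% humidity) and then treated at 15.625, 62.5 or 250 g/ha.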
# [8] = system: velvetleaf (Abutilon theophrasti); assay: Test G Post-Emergence Protocol; conditions: Abutilon theophrasti, post-emergence, 312 h, read-out: Velvetleaf damage rating
# Method in brief: as §2
# [9] = system: corn (Zea mays); assay: Test G Post-Emergence Protocol; conditions: Zea mays, post-emergence, 312 h, read-out: Corn damage rating
# Method in brief: as §2
# [10] = system: redroot pigweed (Amaranthus retroflexus); assay: Test G Post-Emergence Protocol; conditions: Amaranthus retroflexus, post-emergence, 312 h, read-out: Pigweed, Redroot damage rating
# Method in brief: as §2
# [11] = system: giant foxtail (Setaria faberi); assay: Test G Post-Emergence Protocol; conditions: Setaria faberi, post-emergence, 312 h, read-out: Foxtail, Giant damage rating
# Method in brief: as §2
# [12] = system: barnyardgrass (Echinochloa crus-galli); assay: Test G Post-Emergence Protocol; conditions: Echinochloa crus-galli, post-emergence, 312 h, read-out: Barnyardgrass damage rating
# Method in brief: as §2
# [13] = 15.625 g ai/ha, evaluated after 13 days (100=total damage to plant; 0=no damage to plant)
# [14] = 62.5 g ai/ha, evaluated after 13 days, 100=total damage to plant, 0=no damage to plant
# [15] = 250 g ai/ha, evaluated after 13 days, 100=total damage to plant, 0=no damage to plant
structure (smiles),measurement,setting,value
CN1C[C@H](c2cccc(C(F)(F)F)c2)[C@@H](C(=O)Nc2cccc3c2S(=O)(=O)CC3)C1=O (racemic) [Compound 1738],pest or weed control at 15.625 g/ha,"[1]; 15.625 g ai/ha, read-out: Morningglory, Ivy-leaved damage rating (100=total damage to plant; 0=no damage to plant)",0%
same,pest or weed control at 62.5 g/ha,"[1]; 62.5 g ai/ha, 100=total damage to plant, 0=no damage to plant, read-out: Morningglory, Ivy-leaved damage rating",0%
same,pest or weed control at 250 g/ha,"[1]; 250 g ai/ha, read-out: Morningglory, Ivy-leaved damage rating (100=total damage to plant; 0=no damage to plant)",0%
same,pest or weed control at 15.625 g/ha,"[2]; 15.625 g ai/ha, read-out: Velvetleaf damage rating (100=total damage to plant; 0=no damage to plant)",0%
same,pest or weed control at 62.5 g/ha,"[2]; 62.5 g ai/ha, 100=total damage to plant, 0=no damage to plant, read-out: Velvetleaf damage rating",0%
same,pest or weed control at 250 g/ha,"[2]; 250 g ai/ha, read-out: Velvetleaf damage rating (100=total damage to plant; 0=no damage to plant)",0%
same,plant injury at 15.625 g/ha,"[3]; 15.625 g ai/ha, read-out: Corn damage rating (100=total damage to plant; 0=no damage to plant)",0%
same,plant injury at 62.5 g/ha,"[3]; 62.5 g ai/ha, 100=total damage to plant, 0=no damage to plant, read-out: Corn damage rating",0%
same,plant injury at 250 g/ha,"[3]; 250 g ai/ha, read-out: Corn damage rating (100=total damage to plant; 0=no damage to plant)",0%
same,pest or weed control at 15.625 g/ha,"[4]; 15.625 g ai/ha, read-out: Pigweed, Redroot damage rating (100=total damage to plant; 0=no damage to plant)",0%
same,pest or weed control at 62.5 g/ha,"[4]; 62.5 g ai/ha, 100=total damage to plant, 0=no damage to plant, read-out: Pigweed, Redroot damage rating",0%
same,pest or weed control at 250 g/ha,"[4]; 250 g ai/ha, read-out: Pigweed, Redroot damage rating (100=total damage to plant; 0=no damage to plant)",0%
same,pest or weed control at 15.625 g/ha,"[5]; 15.625 g ai/ha, read-out: Foxtail, Giant damage rating (100=total damage to plant; 0=no damage to plant)",0%
same,pest or weed control at 62.5 g/ha,"[5]; 62.5 g ai/ha, 100=total damage to plant, 0=no damage to plant, read-out: Foxtail, Giant damage rating",0%
same,pest or weed control at 250 g/ha,"[5]; 250 g ai/ha, read-out: Foxtail, Giant damage rating (100=total damage to plant; 0=no damage to plant)",70%
same,pest or weed control at 15.625 g/ha,"[6]; 15.625 g ai/ha, read-out: Barnyardgrass damage rating (100=total damage to plant; 0=no damage to plant)",0%
same,pest or weed control at 62.5 g/ha,"[6]; 62.5 g ai/ha, 100=total damage to plant, 0=no damage to plant, read-out: Barnyardgrass damage rating",0%
same,pest or weed control at 250 g/ha,"[6]; 250 g ai/ha, read-out: Barnyardgrass damage rating (100=total damage to plant; 0=no damage to plant)",70%
same,pest or weed control at 15.625 g/ha,[7]; [13],0%
same,pest or weed control at 62.5 g/ha,[7]; [14],0%
same,pest or weed control at 250 g/ha,[7]; [15],0%
same,pest or weed control at 15.625 g/ha,[8]; [13],0%
same,pest or weed control at 62.5 g/ha,[8]; [14],10%
same,pest or weed control at 250 g/ha,[8]; [15],10%
same,plant injury at 15.625 g/ha,[9]; [13],0%
same,plant injury at 62.5 g/ha,[9]; [14],0%
same,plant injury at 250 g/ha,[9]; [15],0%
same,pest or weed control at 15.625 g/ha,[10]; [13],20%
same,pest or weed control at 62.5 g/ha,[10]; [14],10%
same,pest or weed control at 250 g/ha,[10]; [15],10%
same,pest or weed control at 15.625 g/ha,[11]; [13],20%
same,pest or weed control at 62.5 g/ha,[11]; [14],40%
same,pest or weed control at 250 g/ha,[11]; [15],70%
same,pest or weed control at 15.625 g/ha,[12]; [13],0%
same,pest or weed control at 62.5 g/ha,[12]; [14],40%
same,pest or weed control at 250 g/ha,[12]; [15],80%
